Like-named read-outs stand apart in the source and are kept apart here.
Columns and labels:
[1] = Direct interaction with [14C] lipid II, TLC migration; format: binding; conditions: [14C] lipid II 2.5 µM, amylolysin 0.2 µM, DMSO/1-octanol 60/40 v/v, 1 hour, room temperature, Molecular Imager FX
Procedure: (§1) Radiolabelled UDP-MurNac-pentapeptide, thereafter [^14C] lipid II, was prepared in vitro using E. coli K12 purified membrane from UDP-GlcNac and UDP-MurNAc-L-Ala-D-Glu-meso-DAP-D-[^14C]Ala-D-[^14C]Ala and subsequently purified as previously described. Inhibition of glycosyl transferase reaction was performed as described elsewhere with some modifications. Briefly, [^14C] lipid II (2.5µM; 0.125µCi nmol^-1), amylolysin (0.2 µM), His-tag PBP1bγ from E. coli (15 nM) were incubated in 25mM Tris-HCl (pH7,5), 0,5 % decyl PEG, 10 mM MgCl2, 12% 1-octanol, 25 % DMSO for 1 hour at 30 °C. The reaction products were separated by thin layer chromatography (TLC) on silica plate (SilG, […], Macherey-Nagel, Duren, Germany) using a mixture of methanol/chloroform/ammoniac/water (88/48/10/1, v/v/v/v) as mobile phase. For interaction experiment, [^14C] lipid II (2.5 µM; 0.125µCinmol^-1) and amylolysin (0.2 µM) were incubated in DMSO/1-octanol mixture (60/40 v/v) for 1 hour at room temperature before being subjected to TCL using a butanol/acetic acid/pyridine/water mixture (15/3/12/10, v/v/v/v) as mobile phase. The radioactive compounds were detected and analyzed with a Molecular Imager FX system (Biorad Laboratories).

[2] = format: physicochemical; conditions: agar diffusion, M. luteus ATCC 9341
Procedure: To evaluate sensitivity to proteases, purified amylolysin samples were quantified by RP-HPLC after 24h of incubation at 37°C with proteinase K and pronase (10 µg/ml, Sigma-Aldrich). Heat stability was evaluated after incubation for 60 min at various temperatures (25, 55, 65, 75 and 100 °C) whereas pH sensitivity was evaluated after a 1h-incubation in 200 mM HCl/KCl buffer (pH 2-3), acetate buffer (pH 4-6) and Tris buffer (pH 7-9). After those treatments, the remaining amylolysin activity was determined using the agar diffusion assays as described elsewhere, using Micrococcus luteus ATCC 9341 as an indicator strain.

[3] = test system: Listeria monocytogenes LMG 23905; assay: MIC, microdilution (CLSI); format: cell-based; conditions: BH medium, 37 °C, 24-well plates, seeded at OD600 0.1, 24 h, amylolysin 0.1-2.8 µM, OD600 read-out, triplicate
Procedure: (§2) Minimal inhibitory concentration (MIC) was determined for an array of bacterial and yeast strains by a microdilution method following the Clinical and Laboratory Standard Institute (CLSI) recommended procedure. Briefly, the different indicator strains were aerobically grown in 24-wells culture plates in the presence of purified amylolysin at concentration ranging from 0.1 to 2.8 µM in the appropriate medium and temperature conditions as stipulated in table 1. Each well was seeded at an OD600 of 0.1. After 24 h of incubation, cell growth was estimated based on OD600 measurements. The MIC values were defined as the lowest amylolysin concentration that is able to inhibit cell growth. Each experiment was performed in triplicate.

[4] = test system: Bacillus subtilis ATCC 6633; assay: MIC, microdilution (CLSI); format: cell-based; conditions: LB medium, 37 °C, 24-well plates, seeded at OD600 0.1, 24 h, amylolysin 0.1-2.8 µM, OD600 read-out, triplicate
Procedure: as §2

[5] = test system: Listeria monocytogenes LMG 21263; assay: MIC, microdilution (CLSI); format: cell-based; conditions: BH medium, 37 °C, 24-well plates, seeded at OD600 0.1, 24 h, amylolysin 0.1-2.8 µM, OD600 read-out, triplicate
Procedure: as §2

[6] = test system: Lactobacillus plantarum RFB138; assay: MIC, microdilution (CLSI); format: cell-based; conditions: lab stock; MRS medium, 27 °C, 24-well plates, seeded at OD600 0.1, 24 h, amylolysin 0.1-2.8 µM, OD600 read-out, triplicate
Procedure: as §2

[7] = test system: Staphylococcus aureus ATCC 25923; assay: MIC, microdilution (CLSI); format: cell-based; conditions: BH medium, 37 °C, 24-well plates, seeded at OD600 0.1, 24 h, amylolysin 0.1-2.8 µM, OD600 read-out, triplicate
Procedure: as §2

[8] = test system: Staphylococcus aureus RFB127; assay: MIC, microdilution (CLSI); format: cell-based; conditions: lab stock; BH medium, 37 °C, 24-well plates, seeded at OD600 0.1, 24 h, amylolysin 0.1-2.8 µM, OD600 read-out, triplicate
Procedure: as §2

[9] = test system: Staphylococcus aureus ATCC 43300 (methicillin resistant); assay: MIC, microdilution (CLSI); format: cell-based; conditions: methicillin resistant strain; BH medium, 37 °C, 24-well plates, seeded at OD600 0.1, 24 h, amylolysin 0.1-2.8 µM, OD600 read-out, triplicate
Procedure: as §2

[10] = test system: Listeria innocua ATCC33090; assay: MIC, microdilution (CLSI); format: cell-based; conditions: BH medium, 37 °C, 24-well plates, seeded at OD600 0.1, 24 h, amylolysin 0.1-2.8 µM, OD600 read-out, triplicate
Procedure: as §2

Listeria innocua RFB159 = assay: MIC, microdilution (CLSI); format: cell-based; conditions: clinical isolate; BH medium, 37 °C, 24-well plates, seeded at OD600 0.1, 24 h, amylolysin 0.1-2.8 µM, OD600 read-out, triplicate
Procedure: as §2

[11] = test system: Micrococcus luteus ATCC 9341; assay: MIC, microdilution (CLSI); format: cell-based; conditions: BH medium, 37 °C, 24-well plates, seeded at OD600 0.1, 24 h, amylolysin 0.1-2.8 µM, OD600 read-out, triplicate
Procedure: as §2

Weissella sp RFB139 = assay: MIC, microdilution (CLSI); format: cell-based; conditions: lab stock; MRS medium, 27 °C, 24-well plates, seeded at OD600 0.1, 24 h, amylolysin 0.1-2.8 µM, OD600 read-out, triplicate
Procedure: as §2

Bacillus cereus RFB125 = assay: MIC, microdilution (CLSI); format: cell-based; conditions: clinical isolate; LB medium, 37 °C, 24-well plates, seeded at OD600 0.1, 24 h, amylolysin 0.1-2.8 µM, OD600 read-out, triplicate
Procedure: as §2

[12] = test system: Listeria monocytogenes LM2234; assay: MIC, microdilution (CLSI); format: cell-based; conditions: clinical isolate; BH medium, 37 °C, 24-well plates, seeded at OD600 0.1, 24 h, amylolysin 0.1-2.8 µM, OD600 read-out, triplicate
Procedure: as §2

[13] = test system: Staphylococcus epidermis ATCC 1228; assay: MIC, microdilution (CLSI); format: cell-based; conditions: BH medium, 37 °C, 24-well plates, seeded at OD600 0.1, 24 h, amylolysin 0.1-2.8 µM, OD600 read-out, triplicate
Procedure: as §2

[14] = test system: Enterococcus faecalis ATCC 29212; assay: MIC, microdilution (CLSI); format: cell-based; conditions: BH medium, 37 °C, 24-well plates, seeded at OD600 0.1, 24 h, amylolysin 0.1-2.8 µM, OD600 read-out, triplicate
Procedure: as §2

[15] = test system: Bacillus megaterium RFB124; assay: MIC, microdilution (CLSI); format: cell-based; conditions: LB medium, 37 °C, 24-well plates, seeded at OD600 0.1, 24 h, amylolysin 0.1-2.8 µM, OD600 read-out, triplicate
Procedure: as §2

Listeria ivanovii RFB160 = assay: MIC, microdilution (CLSI); format: cell-based; conditions: BH medium, 37 °C, 24-well plates, seeded at OD600 0.1, 24 h, amylolysin 0.1-2.8 µM, OD600 read-out, triplicate
Procedure: as §2

[16] = test system: Enterococcus faecium RFB128; assay: MIC, microdilution (CLSI); format: cell-based; conditions: lab stock; BH medium, 37 °C, 24-well plates, seeded at OD600 0.1, 24 h, amylolysin 0.1-2.8 µM, OD600 read-out, triplicate
Procedure: as §2

[17] = test system: Streptococcus agalactiae RFB141; assay: MIC, microdilution (CLSI); format: cell-based; conditions: clinical isolate; BH medium, 37 °C, 24-well plates, seeded at OD600 0.1, 24 h, amylolysin 0.1-2.8 µM, OD600 read-out, triplicate
Procedure: as §2

[18] = test system: Enterococcus faecalis RFB129; assay: MIC, microdilution (CLSI); format: cell-based; conditions: clinical isolate; BH medium, 37 °C, 24-well plates, seeded at OD600 0.1, 24 h, amylolysin 0.1-2.8 µM, OD600 read-out, triplicate
Procedure: as §2

[19] = test system: L. monocytogenes (three clinical or food isolates); assay: MIC, microdilution (CLSI), summary for three isolates; format: cell-based, Listeria monocytogenes; conditions: summary value of the text for the three L. monocytogenes isolates tested; BH medium, 37 °C, 24 h, triplicate
Procedure: as §2

[20] = test system: His-tag PBP1bγ from E. coli; assay: Inhibition of the transglycosylation (glycosyl transferase) reaction, TLC of [14C] lipid II; format: biochemical; conditions: [14C] lipid II 2.5 µM, amylolysin 0.2 µM, PBP1bγ 15 nM, 25 mM Tris-HCl pH 7.5, 0.5 % decyl PEG, 10 mM MgCl2, 12% 1-octanol, 25 % DMSO, 1 hour, 30 °C
Procedure: as §1

meat proteases = conditions: cited from earlier work
Source text: (§3) The majority of the bacteriocins described to date are from lactic bacteria with nisin, used commercially in many countries as preservative in food products, being the best characterized compound. […] In regards to their high level of protease production, Bacillus sp. has been considered as interesting alternative source for antimicrobial peptides with increased protease tolerance. In our laboratory, B. amyloliquefaciens ...

[21] = above pH 6; cited from earlier work
Source text: as §3

amylolysin
direct amylolysin-lipid II interaction (delay of migration of the complex on TLC) [1]: direct interaction between the two partners | reduction of biological activity ([2]; 100 °C for 1 hour): 7% | antimicrobial activity reduction ([2]; acidic condition, pH 2, 1 h): 11% | antimicrobial activity reduction ([2]; alkaline condition, pH 9, 1 h): 7% | MIC [3]: 0.4 µM | MIC [4]: 1.4 µM | MIC [5]: 0.5 µM | MIC [6]: >2.8 µM | MIC [7]: 2.8 µM | MIC [8]: 1.4 µM | MIC [9]: 0.4 µM | MIC [10]: 0.7 µM | MIC (Listeria innocua RFB159): 0.7 µM | MIC [11]: 0.7 µM | MIC (Weissella sp RFB139): 2.8 µM | MIC (Bacillus cereus RFB125): 0.2 µM | MIC [12]: 0.4 µM | MIC [13]: 2.8 µM | MIC [14]: 1.4 µM | MIC [15]: 0.4 µM | MIC (Listeria ivanovii RFB160): 0.8 µM | MIC [16]: 0.1 µM | MIC [17]: 2.8 µM | MIC [18]: 0.7 µM | MIC [19]: ~0.5 µM | inhibition of the transglycosylation reaction (lipid II polymerisation) [20]: Inhibition of the transglycosylation reaction | sensitivity to meat proteases (meat proteases): less sensitive to meat proteases than nisin

nisin
solubility [21]: low solubility above pH 6

— PMC3857288, “Characterization of Amylolysin, a Novel Lantibiotic from Bacillus amyloliquefaciens GA1” (PLoS ONE, 2013)
